What was measured:
Format in all cases: cell-based
mouse P2X4 receptors = molecular target: T1, mouse P2X4 receptors (Mus musculus, UniProt Q9JJX6); assay: Assay B: mouse P2X4 receptor cell line, Fluo8 fluorescence FLIPR (agonist Bz-ATP at EC50); settings: HEK mouse P2X4 cell line, agonist Bz-ATP at EC50, average
T1 construct: host or cells: HEK 293 (recombinant, constitutively expressing)
T1 sequence (Q9JJX6 1-388): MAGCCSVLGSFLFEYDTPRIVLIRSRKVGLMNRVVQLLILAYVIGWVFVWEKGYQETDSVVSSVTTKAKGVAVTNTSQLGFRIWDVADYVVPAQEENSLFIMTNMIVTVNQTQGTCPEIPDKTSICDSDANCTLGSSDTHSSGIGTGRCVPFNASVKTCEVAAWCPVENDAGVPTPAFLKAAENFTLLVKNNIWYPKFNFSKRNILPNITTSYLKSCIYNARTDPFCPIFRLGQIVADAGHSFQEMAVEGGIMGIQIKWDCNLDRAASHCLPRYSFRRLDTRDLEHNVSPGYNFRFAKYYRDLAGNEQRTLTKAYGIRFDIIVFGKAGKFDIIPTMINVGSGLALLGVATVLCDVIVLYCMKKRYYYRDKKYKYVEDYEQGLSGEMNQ
Procedure: The identification of agonists and antagonists of the P2X4 receptor from humans and […] also the quantification of the activity of the compounds of the invention was performed by use of recombinant cell lines. […] The test cell lines constitutively express the mouse or human P2X4 receptors. Stimulation of the receptors with an agonist leads to a conformational change of P2X4 and influx of extracellular calcium ions through the ion channel. The cytoplasmatic calcium transient is detected via the calcium sensitive dye Fluo8 for the mouse P2×4 cell line or in case of the human P2×4 cell line a stably expressed calcium-sensitive photoprotein, mitochondrial photina, which, after reconstitution with the cofactor coelenterazine, emits light in dependence of calcium binding [Bovolenta S, Foti M, Lohmer S, Corazza S., J Biomol Screen. […] The strength of Fluo8 fluorescence signal or photina luminescence signal corresponds to the level of receptor activation. An inhibitor would decrease the signal depending on its potency and concentration.
On the day of the assay medium is exchanged by Fluo8 containing buffer for 30 minutes. In the fluorescence reader (FLIPR) test substances in various concentrations are added for 10 minutes. After baseline measurement the agonist Bz-ATP at EC50 concentration is applied and fluorescence is measured immediately.

P2X4 [1] = molecular target: T2, P2X4 (Homo sapiens, UniProt Q99571); assay: Assay A: human P2X4 receptor cell line, FLIPR calcium assay (Fluo-8, agonist Bz-ATP at EC80); design: host or cells: HEK 293 (recombinant, constitutively expressing; with mitochondrial photina in Assay B); settings: HEK human P2X4 cells, Fluo-8 FLIPR; for IC50: Bz-ATP at EC80, average values; for Emax: percentage of maximal inhibition, read-out: human P2X4 Assay A avg Efficacy
T2 sequence (Q99571 1-388): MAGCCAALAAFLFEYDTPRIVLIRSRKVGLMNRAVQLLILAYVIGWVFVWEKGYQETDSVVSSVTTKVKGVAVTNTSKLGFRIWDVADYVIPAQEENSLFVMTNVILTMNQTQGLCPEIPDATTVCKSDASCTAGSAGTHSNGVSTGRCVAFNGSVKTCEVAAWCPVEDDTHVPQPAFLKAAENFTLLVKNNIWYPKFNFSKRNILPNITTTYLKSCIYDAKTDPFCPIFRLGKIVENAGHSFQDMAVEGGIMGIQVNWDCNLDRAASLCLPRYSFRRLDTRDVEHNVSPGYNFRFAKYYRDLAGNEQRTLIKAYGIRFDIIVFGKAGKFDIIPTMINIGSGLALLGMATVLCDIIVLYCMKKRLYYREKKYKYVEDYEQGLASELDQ
Summary of the method: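 Antagonism read as inhibition of the calcium response to EC80 Bz-ATP, by peak-over-basal Fluo-8 fluorescence over 120 s, normalized to DMSO wells. Human P2X4-HEK cells, dye-loaded 30 min in probenecid-containing HBSS/HEPES pH 7.4, received compound 30 min beforehand at room temperature, 0.5% DMSO final. Triplicates fitted for IC50, maximal inhibition and Hill slope.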

P2X4 [2] = molecular target: T2, P2X4; assay: Assay B: human P2X4 receptor cell line, mitochondrial photina luminescence (agonist Bz-ATP at EC50); design: host or cells: HEK 293 (recombinant, constitutively expressing; with mitochondrial photina in Assay B); settings: HEK human P2X4 cell line, photina luminescence, agonist Bz-ATP at EC50, average; for Emax: read-out: human P2X4 Assay B avg Efficacy
Summary of the method: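 Bz-ATP at its EC50 activates human P2X4 stably expressed in a cell line that also carries the calcium-sensitive photoprotein mitochondrial photina (coelenterazine cofactor). Light emitted on calcium influx is measured straight away in a luminometer. Reduced luminescence indicates antagonism.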

| SMILES | IC50 (mouse P2X4 receptors) [nM] | mouse P2X4 Assay B avg Efficacy (mouse P2X4 receptors) [%] | IC50 (P2X4 [1]) [nM] | Emax (P2X4 [1]) [%] | IC50 (P2X4 [2]) [nM] | Emax (P2X4 [2]) [%] |
| --- | --- | --- | --- | --- | --- | --- |
| NC(=O)c1cccc(Oc2ccc(NC(=O)Cc3ccccc3Cl)cc2S(N)(=O)=O)c1 [Example 017, 3-(4-{[(2-Chlorophenyl)acetyl]amino}-2-sulfamoylphenoxy)benzamide] | 805 | 44 | 61 | 86 | 55 | 65 |
| NS(=O)(=O)c1cc(NC(=O)Cc2ccccc2Cl)ccc1Oc1cnc(Cl)c(Cl)c1 [Example 036, 2-(2-Chlorophenyl)-N-{4-[(5,6-dichloropyridin-3-yl)oxy]-3-sulfamoylphenyl}acetamide] | > 50000 | 15 | 106 | 81 | 68 | 79 |
| NS(=O)(=O)c1cc(NC(=O)Cc2ccccc2Cl)ccc1Oc1ccc(-n2ccnc2)cc1 [Example 042, 2-(2-Chlorophenyl)-N-{4-[4-(1H-imidazol-1-yl)phenoxy]-3-sulfamoylphenyl}acetamide] | > 50000 | 54 | 241 | 89 | 460 | 90 |
| NS(=O)(=O)c1cc(NC(=O)Cc2cccc(F)c2Cl)ccc1Oc1cccc(Cl)c1 [Example 098, 2-(2-Chloro-3-fluorophenyl)-N-[4-(3-chlorophenoxy)-3-sulfamoylphenyl]acetamide] | 387 | 69 | 7 | 95 | 25 | 57 |
| NS(=O)(=O)c1cc(NC(=O)Cc2cc(F)ccc2Cl)ccc1Oc1cccc(Cl)c1 [Example 099, 2-(2-Chloro-5-fluorophenyl)-N-[4-(3-chlorophenoxy)-3-sulfamoylphenyl]acetamide] | 808 | 67 | 168 | 77 | 22 | 55 |
| NS(=O)(=O)c1cc(NC(=O)Cc2c(Cl)cccc2Cl)ccc1Oc1cccc(Cl)c1 [Example 104, N-[4-(3-Chlorophenoxy)-3-sulfamoylphenyl]-2-(2,6-dichlorophenyl)acetamide] | 604 | 59 | – | 78 | – | 60 |
| NS(=O)(=O)c1cc(NC(=O)Cc2ccc(C(F)(F)F)cc2)ccc1OCc1ccccn1 [Example 152, N-[4-(Pyridin-2-ylmethoxy)-3-sulfamoylphenyl]-2-[4-(trifluoromethyl)phenyl]acetamide] | > 50000 | 35 | > 25000 | 47 | 431 | 89 |
| NS(=O)(=O)c1cc(NC(=O)Cc2ccccc2Cl)ccc1OCC1CCCC1 [Example 160, 2-(2-Chlorophenyl)-N-[4-(cyclopentylmethoxy)-3-sulfamoylphenyl]acetamide] | 1030 | 62 | 10 | 71 | 40 | 67 |
| NS(=O)(=O)c1cc(NC(=O)Cc2cc(F)ccc2Cl)ccc1OCC1CCOCC1 [Example 163, 2-(2-Chloro-5-fluorophenyl)-N-[3-sulfamoyl-4-(tetrahydro-2H-pyran-4-ylmethoxy)phenyl]acetamide] | 3500 | 65 | – | 68 | – | 61 |
| CN(C)C(=O)c1cccc(CC(=O)Nc2ccc(Oc3cccc(Cl)c3)c(S(N)(=O)=O)c2)c1 [Example 202, 3-(2-{[4-(3-Chlorophenoxy)-3-sulfamoylphenyl]amino}-2-oxoethyl)-N,N-dimethylbenzamide] | 947 | 60 | 121 | 72 | 278 | 83 |
| COC(=O)c1ccc(Oc2ccc(NC(=O)Cc3ccccc3Cl)cc2S(N)(=O)=O)cc1 [Example 273, Methyl 4-(4-{[(2-chlorophenyl)acetyl]amino}-2-sulfamoylphenoxy)benzoate] | 149 | 45 | 18 | 78 | – | – |

Other lines, results leading:

| IC50 (mouse P2X4 receptors) [nM] | mouse P2X4 Assay B avg Efficacy (mouse P2X4 receptors) [%] | IC50 (P2X4 [1]) [nM] | Emax (P2X4 [1]) [%] | IC50 (P2X4 [2]) [nM] | Emax (P2X4 [2]) [%] | SMILES |
| --- | --- | --- | --- | --- | --- | --- |
| 1240 | 44 | 20 | 70 | 43 | 56 | NS(=O)(=O)c1cc(NC(=O)Cc2ccccc2Cl)ccc1Oc1ccc(F)cc1 [Example 012, 2-(2-chlorophenyl)-N-[4-(4-fluorophenoxy)-3-sulfamoylphenyl]acetamide] |
| > 16000 | 31 | – | 93 | – | 71 | NS(=O)(=O)c1cc(NC(=O)Cc2ccccc2Cl)ccc1Oc1ccccn1 [Example 013, 2-(2-Chlorophenyl)-N-[4-(pyridin-2-yloxy)-3-sulfamoylphenyl]acetamide] |
| > 16000 | 25 | – | 85 | – | 70 | NS(=O)(=O)c1cc(NC(=O)Cc2ccccc2Cl)ccc1Oc1ccccc1 [Example 014, 2-(2-Chlorophenyl)-N-(4-phenoxy-3-sulfamoylphenyl)acetamide] |
| 1750 | 66 | 35 | 88 | 33 | 98 | NS(=O)(=O)c1cc(NC(=O)Cc2ccccc2Cl)ccc1OCc1ccccc1F [Example 137, 2-(2-Chlorophenyl)-N-{4-[(2-fluorobenzyl)oxy]-3-sulfamoylphenyl}acetamide] |
| 9390 | 41 | 4 | 67 | 27 | 56 | N#Cc1ccc(COc2ccc(NC(=O)Cc3ccccc3Cl)cc2S(N)(=O)=O)cc1 [Example 138, 2-(2-Chlorophenyl)-N-{4-[(4-cyanobenzyl)oxy]-3-sulfamoylphenyl}acetamide] |
| 612 | 52 | 26 | 82 | 43 | 63 | NS(=O)(=O)c1cc(NC(=O)Cc2ccccc2Cl)ccc1OCc1cccc(Cl)c1 [Example 139, N-{4-[(3-Chlorobenzyl)oxy]-3-sulfamoylphenyl}-2-(2-chlorophenyl)acetamide] |
| 1130 | 66 | – | 96 | – | 69 | NS(=O)(=O)c1cc(NC(=O)Cc2ccccc2Cl)ccc1OCc1ccccc1 [Example 141, N-[4-(Benzyloxy)-3-sulfamoylphenyl]-2-(2-chlorophenyl)acetamide] |
| > 50000 | 25 | 12 | 81 | 47 | 58 | NS(=O)(=O)c1cc(NC(=O)Cc2ccccc2Cl)ccc1OCCc1cccc(Cl)c1 [Example 156, 2-(2-Chlorophenyl)-N-{4-[2-(3-chlorophenyl)ethoxy]-3-sulfamoylphenyl}acetamide] |

— patent US20180338980A1, “AROMATIC SULFONAMIDE DERIVATIVES” (BAYER PHARMA AKTIENGESELLSCHAFT, priority 2015, published 2018)
